According to publication PMC10244465, “Native American ataxia medicines rescue ataxia-linked mutant potassium channel activity via binding to the voltage sensing domain” (Nature Communications, 2023):
Like-named read-outs stand apart in the source and are kept apart here.

Tests used:
Type in all cases: cell-based
[1] = molecular target: T1, Kv1.1/Kv1.1-V408A channels (Homo sapiens, UniProt Q09470, V408A); assay: TEVC of oocytes co-injected with 50/50 wild-type/V408A Kv1.1 cRNA; details: for effect on channel activity: compound 1 µM
T1 construct: expressed in transfected cells; host or cells: Xenopus laevis oocytes co-injected with 50/50 wild-type/mutant cRNA
T1 sequence (Q09470 whole entry, stated change not applied): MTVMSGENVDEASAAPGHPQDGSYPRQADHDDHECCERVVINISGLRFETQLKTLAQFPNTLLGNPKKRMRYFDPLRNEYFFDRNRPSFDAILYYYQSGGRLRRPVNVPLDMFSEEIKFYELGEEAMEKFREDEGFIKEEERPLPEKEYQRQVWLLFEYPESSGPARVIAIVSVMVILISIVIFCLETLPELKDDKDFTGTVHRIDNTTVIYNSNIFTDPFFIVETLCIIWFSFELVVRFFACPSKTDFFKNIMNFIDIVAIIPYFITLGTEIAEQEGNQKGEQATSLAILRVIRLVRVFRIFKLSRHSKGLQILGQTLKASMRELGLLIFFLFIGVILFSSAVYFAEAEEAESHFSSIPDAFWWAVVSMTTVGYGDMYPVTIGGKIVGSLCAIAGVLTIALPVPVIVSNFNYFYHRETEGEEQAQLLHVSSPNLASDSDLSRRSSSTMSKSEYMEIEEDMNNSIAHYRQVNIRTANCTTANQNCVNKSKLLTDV
T1 sequence (Q09470 whole entry V408A): as the sequence (Q09470 whole entry, stated change not applied) above, with V408A counted along it
Method: (§1) We next tested effects on channels generated by co-injection of 50/50 wild-type/mutant Kv1.1 cRNA. Strikingly, gallic acid (1 µM) was able to hyperpolarize (by −15.5 ± 0.5 mV; n = 4; P < 0.0001) the V0.5 act of Kv1.1/Kv1.1-E283K channels, restoring voltage dependence typical of wild-type Kv1.1 (Fig. 7a–c), also inducing a −14 ± 0.7 mV hyperpolarization (n = 4; P = 0.0005) in EM of oocytes expressing Kv1.1/Kv1.1-E283K (Fig. 7d). […] Because of this hint at activity improvement in L155P channels we also applied higher concentrations (10 and 100 µM) of gallic acid, which produced a more robust (−12.5 ± 0.6 mV and −14.1 ± 0.6 mV, respectively) hyperpolarization of Kv1.1/Kv1.1-L155P V0.5 act (Fig. 8b, c) and hyperpolarized EM by −14.0 ± 0.6 mV and −15.2 ± 0.7 mV, respectively (Fig. 8d).
(§2) Wild-type and mutant Kv1 cDNAs were generated (Genscript, Piscataway, NJ) in the pTLNx expression vector. As previously described, we generated cRNA transcripts encoding human Kv1.1 (wild-type and mutant) and Kv1.2, by in vitro transcription using the mMessage mMachine kit (Thermo Fisher Scientific), after vector linearization, from cDNA sub-cloned into plasmids (pTLNx) incorporating Xenopus laevis β-globin 5’ and 3’ UTRs flanking the coding region to enhance translation and cRNA stability. […]
(§3) We performed TEVC at room temperature using an OC-725C amplifier (Warner Instruments, Hamden, CT) and pClamp10 software (Molecular Devices, Sunnyvale, CA) 2 days after cRNA injection as described in the section above. […] We recorded currents in response to voltage pulses between −80 mV and +40 mV at 10 or 20 mV intervals from a holding potential of −80 mV, to yield current-voltage relationships and examine activation kinetics. To calculate the voltage dependence of activation (V0.5), tail currents were recorded at a voltage pulse of −50 mV immediately following prepulse voltages between −80 mV and +40 mV. We analyzed data using Clampfit (Molecular Devices) and Graphpad Prism software (GraphPad, San Diego, CA, USA), stating values as mean ± SEM. […]

[2] = molecular target: T2, Kv1.1-E283K channels (Homo sapiens, UniProt Q09470, E283K); assay: TEVC of oocytes injected with 100% Kv1.1-E283K cRNA; details: for EC50: biphasic dose response
T2 construct: expressed in transfected cells; host or cells: Xenopus laevis oocytes
T2 sequence (Q09470 whole entry E283K): as the sequence (Q09470 whole entry, stated change not applied) above, with E283K counted along it

[3] = molecular target: T3, Kv1.1-G311D channels (Homo sapiens, UniProt Q09470, G311D); assay: TEVC of oocytes expressing 100% Kv1.1-G311D; details: compound 1 µM
T3 construct: expressed in transfected cells; host or cells: Xenopus laevis oocytes
T3 sequence (Q09470 whole entry G311D): as the sequence (Q09470 whole entry, stated change not applied) above, with G311D counted along it
Text: EA1 mutant G311D is in the S4-5 linker of Kv1.1 (Fig. 5a) and produces a 65% prepulse current reduction both in Kv1.1-G311D and in Kv1.1/Kv1.1-G311D channels[43],[44]; either channel type was minimally responsive to the plant extracts tested (Supplementary Figs. 3 and 4). EA1 mutant L328V (which is associated with tetany and hypomagnesemia) is located in the intracellular end of Kv1.1 S5 (Fig. 5a) and results in complete current loss in a dominant negative manner, i.e., Kv1.1-L328V and Kv1.1/Kv1.1-L328V channels are each nonfunctional. The traditional ataxia remedy plant extracts were unable to rescue Kv1.1-L328V or Kv1.1/Kv1.1-L328V function (Supplementary Figs. 5 and 6). EA1 mutant V408A is in the intracellular-proximal end of Kv1.1 S6 (Fig. 5a) and reduces current, speeds deactivation, and increases C-type inactivation of Kv1.1[46]. Here, Native American ataxia remedy extracts had relatively minor effects on Kv1.1-V408A activity, with nettle and Pacific ninebark (roots or leaves) inducing hyperpolarizing shifts in EM, and Pacific ninebark leaves inducing a negative shift in the voltage dependence of activation, although this was not quantifiable due to the very small tail currents (Supplementary Fig. 7). Effects of the extracts on Kv1.1/Kv1.1-V408A activity were also relatively minor (Supplementary Fig. 8). […]

[4] = molecular target: T4, Kv1.1-L155P channels (Homo sapiens, UniProt Q09470, L155P); assay: TEVC of oocytes expressing 100% Kv1.1-L155P; details: compound 1 µM
T4 construct: expressed in transfected cells; host or cells: Xenopus laevis oocytes
T4 sequence (Q09470 whole entry L155P): as the sequence (Q09470 whole entry, stated change not applied) above, with L155P counted along it
Text: As previously described[24], we generated cRNA transcripts encoding human Kv1.1 (wild-type and mutant) and Kv1.2, by in vitro transcription using the mMessage mMachine kit (Thermo Fisher Scientific), after vector linearization, from cDNA sub-cloned into plasmids (pTLNx) incorporating Xenopus laevis β-globin 5’ and 3’ UTRs flanking the coding region to enhance translation and cRNA stability. We injected defolliculated stage V and VI Xenopus laevis oocytes (Xenoocyte, Dexter, MI, US) with Kv1 cRNAs (1–5 ng). […]

[5] = molecular target: T5, Kv1.1/Kv1.1-E283K channels (Homo sapiens, UniProt Q09470, E283K); assay: TEVC of oocytes co-injected with 50/50 wild-type/E283K Kv1.1 cRNA
T5 construct: expressed in transfected cells; host or cells: Xenopus laevis oocytes co-injected with 50/50 wild-type/mutant cRNA
T5 sequence (Q09470 whole entry, stated change not applied): as the sequence (Q09470 whole entry, stated change not applied) above
T5 sequence (Q09470 whole entry E283K): as the sequence (Q09470 whole entry, stated change not applied) above, with E283K counted along it
Method: as §1
Wild-type and mutant Kv1 cDNAs were generated (Genscript, Piscataway, NJ) in the pTLNx expression vector. As previously described, we generated cRNA transcripts encoding human Kv1.1 (wild-type and mutant) and Kv1.2, by in vitro transcription using the mMessage mMachine kit (Thermo Fisher Scientific), after vector linearization, from cDNA sub-cloned into plasmids (pTLNx) incorporating Xenopus laevis β-globin 5’ and 3’ UTRs flanking the coding region to enhance translation and cRNA stability. We injected defolliculated stage V and VI Xenopus laevis oocytes (Xenoocyte, Dexter, MI, US) with Kv1 cRNAs (1–5 ng). We incubated the oocytes at 16 °C in ND96 oocyte storage solution containing penicillin and streptomycin, with daily washing, for 2 days prior to two-electrode voltage-clamp (TEVC) recording.
We performed TEVC at room temperature using an OC-725C amplifier (Warner Instruments, Hamden, CT) and pClamp10 software (Molecular Devices, Sunnyvale, CA) 2 days after cRNA injection as described in the section above. For recording, oocytes we placed in a small-volume oocyte bath (Warner) and viewed with a dissection microscope. We sourced chemicals from Sigma. We studied effects of plant extracts and of compounds, solubilized directly in bath solution (in mM): 96 NaCl, 4 KCl, 1 MgCl2, 1 CaCl2, 10 HEPES (pH 7.6). We introduced extracts or compounds into the oocyte recording bath by gravity perfusion at a constant flow of 1 ml per minute for 3 min prior to recording. Pipettes were of 1–2 MΩ resistance when filled with 3 M KCl. We recorded currents in response to voltage pulses between −80 mV and +40 mV at 10 or 20 mV intervals from a holding potential of −80 mV, to yield current-voltage relationships and examine activation kinetics. To calculate the voltage dependence of activation (V0.5), tail currents were recorded at a voltage pulse of −50 mV immediately following prepulse voltages between −80 mV and +40 mV. We analyzed data using Clampfit (Molecular Devices) and Graphpad Prism software (GraphPad, San Diego, CA, USA), stating values as mean ± SEM. We plotted raw or normalized tail currents vs. prepulse voltage and fitted with a single Boltzmann function:1 g=(A1−A2)/1+exp[V1/2−V/Vs]y+A2 where g is the normalized tail conductance, A1 is the initial value at -∞, A2 is the final value at +∞, V1/2 is the half-maximal voltage of activation and Vs the slope factor.

[6] = molecular target: T6, Kv1.1/Kv1.1-L328V channels (Homo sapiens, UniProt Q09470, L328V); assay: TEVC of oocytes co-injected with 50/50 wild-type/L328V Kv1.1 cRNA; details: for effect on channel activity: compound 1 µM
T6 construct: expressed in transfected cells; host or cells: Xenopus laevis oocytes co-injected with 50/50 wild-type/mutant cRNA
T6 sequence (Q09470 whole entry, stated change not applied): as the sequence (Q09470 whole entry, stated change not applied) above
T6 sequence (Q09470 whole entry L328V): as the sequence (Q09470 whole entry, stated change not applied) above, with L328V counted along it
Method: as §1, §2, §3

[7] = molecular target: T7, Kv1.1/Kv1.1-G311D channels (Homo sapiens, UniProt Q09470, G311D); assay: TEVC of oocytes co-injected with 50/50 wild-type/G311D Kv1.1 cRNA; details: for effect on channel activity: compound 1 µM
T7 construct: expressed in transfected cells; host or cells: Xenopus laevis oocytes co-injected with 50/50 wild-type/mutant cRNA
T7 sequence (Q09470 whole entry, stated change not applied): as the sequence (Q09470 whole entry, stated change not applied) above
T7 sequence (Q09470 whole entry G311D): as the sequence (Q09470 whole entry, stated change not applied) above, with G311D counted along it
Method: as §1, §2, §3

[8] = -20 mV, Figure 6 table, head 1 µM Tannic acid, footnote bladderwrack kelp

O=C(O)c1cc(O)c(O)c(O)c1 [gallic acid]
effect on channel activity [1]: negligible | EM ([1]; in presence of 1 µM compound): -46.60 ± 0.60 mV | effect on channel activity ([2]; compound 1 µM): only very minor functional improvements | effect on channel activity [3]: ineffective at rescuing activity | effect on channel activity [4]: ineffective at rescuing activity | hyperpolarization in EM ([5]; 1 µM): −14 ± 0.7 mV | hyperpolarizing shift of V0.5 act ([5]; 1 µM): −15.5 ± 0.5 mV | EM ([5]; in presence of 1 µM compound): -47.80 ± 0.65 mV | Slope ([5]; in presence of 1 µM compound): 5.70 ± 1.12 mV | V0.5 Normalized tail current ([5]; in presence of 1 µM compound): -27.50 ± 0.51 mV | effect on channel activity [6]: negligible | EM ([6]; in presence of 1 µM compound): -33.00 ± 1.09 mV | effect on channel activity [7]: negligible | EM ([7]; in presence of 1 µM compound): -47.00 ± 2.56 mV

tannic acid
effect on channel activity [1]: minimal | TauAct ([2]; 0 mV, 1 µM, Figure 9 table): 15.70 ± 1.40 ms | TauAct ([2]; 0 mV, Figure 6 table, head 1 µM Tannic acid, footnote bladderwrack kelp): 21.12 ± 4.35 ms | Peak current at -40 mV ([2]; 0.1 µM): 0.02 ± 0.01 µA | Peak current at -40 mV ([2]; 1 µM): 0.02 ± 0.01 µA | shift in the EM ([2]; 1 µM): ~−20 mV | shift of V0.5 activation ([2]; 1 µM): −13 ± 0.26 mV | Current-fold change -30 mV ([2]; 1 µM compound): 4.69 ± 1.69 | increase of activity ([2]; 1 µM, at −40 to −20 mV): ≤ 20 fold | Peak current at -40 mV ([2]; 10 µM): 0.02 ± 0.01 µA | Peak current at -40 mV ([2]; 30 µM): 0.02 ± 0.01 µA | Peak current at -40 mV ([2]; 100 µM): 0.03 ± 0.01 µA | TauAct ([2]; +10 mV, 1 µM, Figure 9 table): 12.94 ± 1.05 ms | TauAct ([2]; +10 mV, Figure 6 table, head 1 µM Tannic acid, footnote bladderwrack kelp): 17.43 ± 3.97 ms | TauAct ([2]; +20 mV, 1 µM, Figure 9 table): 11.30 ± 0.89 ms | TauAct ([2]; +20 mV, Figure 6 table, head 1 µM Tannic acid, footnote bladderwrack kelp): 12.72 ± 2.85 ms | TauAct ([2]; +30 mV, 1 µM, Figure 9 table): 10.16 ± 0.83 ms | TauAct ([2]; +30 mV, Figure 6 table, head 1 µM Tannic acid, footnote bladderwrack kelp): 10.63 ± 2.79 ms | TauAct ([2]; +40 mV, 1 µM, Figure 9 table): 9.46 ± 0.83 ms | TauAct ([2]; +40 mV, Figure 6 table, head 1 µM Tannic acid, footnote bladderwrack kelp): 10.04 ± 2.65 ms | TauAct ([2]; -10 mV, 1 µM, Figure 9 table): 20.71 ± 2.35 ms | TauAct ([2]; -10 mV, Figure 6 table, head 1 µM Tannic acid, footnote bladderwrack kelp): 27.06 ± 7.08 ms | TauAct ([2]; -20 mV, 1 µM, Figure 9 table): 31.31 ± 2.98 ms | TauAct [2, 8]: 41.32 ± 8.47 ms | TauDeact [2, 8]: 0.87 ± 0.36 ms | TauDeact ([2]; -30 mV, Figure 6 table, head 1 µM Tannic acid, footnote bladderwrack kelp): 0.79 ± 0.32 ms | TauDeact ([2]; -40 mV, Figure 6 table, head 1 µM Tannic acid, footnote bladderwrack kelp): 0.88 ± 0.36 ms | TauDeact ([2]; -50 mV, Figure 6 table, head 1 µM Tannic acid, footnote bladderwrack kelp): 1.04 ± 0.44 ms | TauDeact ([2]; -60 mV, Figure 6 table, head 1 µM Tannic acid, footnote bladderwrack kelp): 1.23 ± 0.52 ms | TauDeact ([2]; -70 mV, Figure 6 table, head 1 µM Tannic acid, footnote bladderwrack kelp): 1.38 ± 0.56 ms | TauDeact ([2]; -80 mV, Figure 6 table, head 1 µM Tannic acid, footnote bladderwrack kelp): 1.50 ± 0.57 ms | EC50 ([2]; read-out: EC50 for effects on EM, first component): 1.1 ± 0.9 nM | EC50 ([2]; read-out: EC50 for effects on EM, second component): 10000 ± 400 nM | EC50 ([2]; from the increase in relative tail current at −40 mV, read-out: EC50, higher sensitivity component): 3.7 ± 2.6 nM | EM ([2]; in presence of 1 µM compound): -44.83 ± 0.14 mV | Slope ([2]; in presence of 1 µM compound): 8.70 ± 1.19 mV | V0.5 Normalized tail current ([2]; in presence of 1 µM compound): -22.75 ± 1.34 mV | effect on channel activity [3]: did not alter | effect on channel activity [4]: did not alter | hyperpolarizing shift of V0.5 act ([5]; 1 µM): −12 mV | effect on channel activity [6]: minimal | effect on channel activity [7]: minimal
